Results from patent US8729103B2, “Silent desensitizers of neuronal nAChR and methods of use thereof” (priority 2008, dated 2014).

What was measured:
[1] = in vivo; cited from earlier work
[2] = stability of the isolated HCl salt on exposure to air; assay type: physicochemical; settings: white solid, larger scale
Source text: A gram-scale synthesis of sazetidine A is outlined in FIG. 1a. The Boc-protected azidityl methyl alcohol 2 and 3-bromo-5-hydroxy pyridine (3) are both commercially available. Treatment with PPh3 and DEAD according to the Mitsunobu protocol formed ether derivative 4 in 70% yield. Palladium-mediated coupling of the bromo-substituted pyridine 4 with 5-hexyn-1-ol under modified Sonogashira conditions furnished Boc-protected sazetidine A in 73% yield. Deprotection of the Boc-group with HCl was expected to give sazetidine A in salt form as published in the literature.

α4β2 nAChRs [3] = biological target: T1, α4β2 nAChRs (Homo sapiens, UniProt P17787+P43681); settings: added alone; cited from earlier work
T1 construct: expressed in transfected cells; host or cells: SH-EP1 (SH-EP1-pcDNA-hα4β2)

α4β2 nAChRs [4] = biological target: T2, α4β2 nAChRs (Rattus norvegicus, UniProt P09483+P12390); assay: [3H]epibatidine competition binding, α4β2 nAChR; settings: triazole in place of alkyne
T2 construct: expressed in transfected cells; host or cells: HEK293 (KXα4β2)
Description: The cell lines KXα3β4R2, expressing rat α3β4 nAChRs, and KXα4β2, expressing rat α4β2 nAChRs, were established previously by stably transfecting human embryonic kidney 293 cells with combinations of rat nAChR subunit genes. These cell lines are maintained in minimum essential medium supplemented with 10% fetal bovine serum, 100 units/mL penicillin G, […] streptomycin, and 0.7 mg/mL G418 (Geneticin) at 37° C. with 5% CO2 in a humidified incubator. The cell line SH-EP1-pcDNA-hα4β2, expressing human α4β2 nAChRs, was described previously and are available. […]
The Ki values of compounds for binding to α3β4, α4β2 and other nAChR sub-types will be measured by competition experiments with [3H]epibatidine or other labeled ligands. […]
In brief, cultured cells at above about 80% confluence will be removed from their flasks (80 cm^2) with a disposable cell scraper and will be placed in 10 mL of 50 mM Tris-HCl buffer, pH 7.4, 4° C. […] Nonspecific binding will be assessed in parallel incubations in the presence of 300 μM nicotine. […] The filter-retained radioactivity will be measured by liquid scintillation counting. […] Data from saturation and competition binding assays will be analyzed using Prism 4 (GraphPad Software, San Diego, Calif.).

Compound: Clc1ccc(C2CC3CCC2N3)cn1 (stereo not shown) [Epibatidine]
- analgesic potency relative to morphine [1]: ~200 times

Compound: OCCCCC#Cc1cncc(OCC2CCN2)c1 (stereo not shown) [sazetidine A]
- stability of the HCl salt on exposure to air [2]: immediately resulted in decomposition
- agonist activity at α4β2 nAChRs (α4β2 nAChRs [3]): only low agonist activity

Compound: OCCCCc1cn(-c2cncc(OCC3CCN3)c2)nn1 (stereo not shown) [triazetidine O]
- decrease in Ki relative to sazetidine A (α4β2 nAChRs [4]): approximately 10 fold
